Experimental data: PubChem BioAssay (NCI)
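Step 1: Grow cells in 96-well plates. Step 2: Expose to compound for 48 hours at 5 concentrations. Step 3: Interpolate endpoints linearly; if unreached, use highest concentration. GI50: concentration for 50% inhibition of growth. TGI: total growth inhibition.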

Legend:
Assay in all cases: NCI tumour cell line growth inhibition, 48 h
IGROV1 ovarian = test system: IGROV1 ovarian
OVCAR-4 ovarian = test system: OVCAR-4 ovarian
CAKI-1 renal = test system: CAKI-1 renal
CCRF-CEM leukemia = test system: CCRF-CEM leukemia
HCC-2998 colon = test system: HCC-2998 colon
UACC-257 melanoma = test system: UACC-257 melanoma
SK-OV-3 ovarian = test system: SK-OV-3 ovarian
UO-31 renal = test system: UO-31 renal
BT-549 breast = test system: BT-549 breast
MALME-3M melanoma = test system: MALME-3M melanoma
SK-MEL-28 melanoma = test system: SK-MEL-28 melanoma
OVCAR-5 ovarian = test system: OVCAR-5 ovarian
RXF 393 renal = test system: RXF 393 renal
KM12 colon = test system: KM12 colon
DU-145 prostate = test system: DU-145 prostate
UACC-62 melanoma = test system: UACC-62 melanoma
A549 NSCLC = test system: A549 NSCLC
HOP-62 NSCLC = test system: HOP-62 NSCLC
SF-295 CNS = test system: SF-295 CNS
MDA-MB-231 breast = test system: MDA-MB-231 breast
SNB-75 CNS = test system: SNB-75 CNS
EKVX NSCLC = test system: EKVX NSCLC
HT29 colon = test system: HT29 colon
K-562 leukemia = test system: K-562 leukemia
SF-539 CNS = test system: SF-539 CNS
MOLT-4 leukemia = test system: MOLT-4 leukemia
SR leukemia = test system: SR leukemia
SNB-19 CNS = test system: SNB-19 CNS
MDA-MB-435 = test system: MDA-MB-435
SK-MEL-5 melanoma = test system: SK-MEL-5 melanoma
SN12C renal = test system: SN12C renal
NCI/ADR-RES ovarian = test system: NCI/ADR-RES ovarian
U251 CNS = test system: U251 CNS
HCT-116 colon = test system: HCT-116 colon
SW-620 colon = test system: SW-620 colon
COLO 205 colon = test system: COLO 205 colon
HS 578T breast = test system: HS 578T breast
HL-60(TB) leukemia = test system: HL-60(TB) leukemia
NCI-H226 lung = test system: NCI-H226 lung
SF-268 CNS = test system: SF-268 CNS
NCI-H23 lung = test system: NCI-H23 lung
ACHN renal = test system: ACHN renal
RPMI-8226 leukemia = test system: RPMI-8226 leukemia
SK-MEL-2 melanoma = test system: SK-MEL-2 melanoma
786-0 renal = test system: 786-0 renal
PC-3 prostate = test system: PC-3 prostate
OVCAR-8 ovarian = test system: OVCAR-8 ovarian
NCI-H522 lung = test system: NCI-H522 lung
HOP-92 NSCLC = test system: HOP-92 NSCLC
MCF7 breast = test system: MCF7 breast
HCT-15 colon = test system: HCT-15 colon
T-47D breast = test system: T-47D breast
M14 melanoma = test system: M14 melanoma
A498 renal = test system: A498 renal
TK-10 renal = test system: TK-10 renal

`Cc1ccc(-c2nnc(SCc3ccc(O)c4ncccc34)o2)cc1` was tested, and the GI50 (IGROV1 ovarian) was 1550 nM, the TGI (IGROV1 ovarian) was 9860 nM and the GI50 (OVCAR-4 ovarian) was 2450 nM. The TGI (OVCAR-4 ovarian) was > 100000 nM, the GI50 (CAKI-1 renal) was 1800 nM and the TGI (CAKI-1 renal) was 7720 nM. The GI50 (CCRF-CEM leukemia) was 518 nM, the TGI (CCRF-CEM leukemia) was > 100000 nM and the GI50 (HCC-2998 colon) was 933 nM. For the same molecule, the TGI (HCC-2998 colon) was > 100000 nM, the GI50 (UACC-257 melanoma) was 2330 nM and the TGI (UACC-257 melanoma) was 9300 nM. It also gave a GI50 (SK-OV-3 ovarian) of 1980 nM, a TGI (SK-OV-3 ovarian) of 6900 nM and a GI50 (UO-31 renal) of 567 nM. For the same molecule, the TGI (UO-31 renal) was 3240 nM, the GI50 (BT-549 breast) was 1060 nM and the TGI (BT-549 breast) was > 100000 nM. The GI50 (MALME-3M melanoma) was 1960 nM, the TGI (MALME-3M melanoma) was 8230 nM and the GI50 (SK-MEL-28 melanoma) was 1040 nM. For the same molecule, the TGI (SK-MEL-28 melanoma) was > 100000 nM, the GI50 (OVCAR-5 ovarian) was 4820 nM and the TGI (OVCAR-5 ovarian) was > 100000 nM. The GI50 (RXF 393 renal) was 1120 nM, the TGI (RXF 393 renal) was 32200 nM and the GI50 (KM12 colon) was 1910 nM. The TGI (KM12 colon) was > 100000 nM, the GI50 (DU-145 prostate) was 1460 nM and the TGI (DU-145 prostate) was > 100000 nM. It also gave a GI50 (UACC-62 melanoma) of 1760 nM, a TGI (UACC-62 melanoma) of 4740 nM and a GI50 (A549 NSCLC) of 1950 nM. The TGI (A549 NSCLC) was > 100000 nM, the GI50 (HOP-62 NSCLC) was 1060 nM and the TGI (HOP-62 NSCLC) was 3830 nM. The GI50 (SF-295 CNS) was 1020 nM, the TGI (SF-295 CNS) was 5780 nM and the GI50 (MDA-MB-231 breast) was 2120 nM. The TGI (MDA-MB-231 breast) was 27500 nM, the GI50 (SNB-75 CNS) was 283 nM and the TGI (SNB-75 CNS) was 3930 nM. For the same molecule, the GI50 (EKVX NSCLC) was 1730 nM, the TGI (EKVX NSCLC) was 9860 nM and the GI50 (HT29 colon) was 6430 nM. The TGI (HT29 colon) was > 100000 nM, the GI50 (K-562 leukemia) was 1140 nM and the TGI (K-562 leukemia) was 66300 nM. It also gave a GI50 (SF-539 CNS) of 561 nM, a TGI (SF-539 CNS) of 5920 nM and a GI50 (MOLT-4 leukemia) of 877 nM. The TGI (MOLT-4 leukemia) was > 100000 nM, the GI50 (SR leukemia) was 568 nM and the TGI (SR leukemia) was 42700 nM. It also gave a GI50 (SNB-19 CNS) of 513 nM, a TGI (SNB-19 CNS) of 14300 nM and a GI50 (MDA-MB-435) of 500 nM. The TGI (MDA-MB-435) was > 100000 nM, the GI50 (SK-MEL-5 melanoma) was 844 nM and the TGI (SK-MEL-5 melanoma) was 6950 nM. For the same molecule, the GI50 (SN12C renal) was 966 nM, the TGI (SN12C renal) was > 100000 nM and the GI50 (NCI/ADR-RES ovarian) was 706 nM. For the same molecule, the TGI (NCI/ADR-RES ovarian) was 7020 nM, the GI50 (U251 CNS) was 444 nM and the TGI (U251 CNS) was > 100000 nM. The GI50 (HCT-116 colon) was 537 nM, the TGI (HCT-116 colon) was > 100000 nM and the GI50 (SW-620 colon) was 1060 nM. For the same molecule, the TGI (SW-620 colon) was > 100000 nM, the GI50 (COLO 205 colon) was 8410 nM and the TGI (COLO 205 colon) was > 100000 nM. The GI50 (HS 578T breast) was 570 nM, the TGI (HS 578T breast) was > 100000 nM and the GI50 (HL-60(TB) leukemia) was 520 nM. The TGI (HL-60(TB) leukemia) was 10200 nM, the GI50 (NCI-H226 lung) was 2420 nM and the TGI (NCI-H226 lung) was > 100000 nM. For the same molecule, the GI50 (SF-268 CNS) was 503 nM, the TGI (SF-268 CNS) was > 100000 nM and the GI50 (NCI-H23 lung) was 1470 nM. The TGI (NCI-H23 lung) was 13000 nM, the GI50 (ACHN renal) was 649 nM and the TGI (ACHN renal) was 2320 nM. For the same molecule, the GI50 (RPMI-8226 leukemia) was 648 nM, the TGI (RPMI-8226 leukemia) was > 100000 nM and the GI50 (SK-MEL-2 melanoma) was 2240 nM. For the same molecule, the TGI (SK-MEL-2 melanoma) was 39400 nM, the GI50 (786-0 renal) was 1610 nM and the TGI (786-0 renal) was 6810 nM. For the same molecule, the GI50 (PC-3 prostate) was 457 nM, the TGI (PC-3 prostate) was > 100000 nM and the GI50 (OVCAR-8 ovarian) was 850 nM. For the same molecule, the TGI (OVCAR-8 ovarian) was > 100000 nM, the GI50 (NCI-H522 lung) was 2290 nM and the TGI (NCI-H522 lung) was > 100000 nM. For the same molecule, the GI50 (HOP-92 NSCLC) was 435 nM, the TGI (HOP-92 NSCLC) was 4080 nM and the GI50 (MCF7 breast) was 388 nM. The TGI (MCF7 breast) was > 100000 nM, the GI50 (HCT-15 colon) was 492 nM and the TGI (HCT-15 colon) was > 100000 nM. It also gave a GI50 (T-47D breast) of 1830 nM, a TGI (T-47D breast) of 7400 nM and a GI50 (M14 melanoma) of 816 nM. For the same molecule, the TGI (M14 melanoma) was 5490 nM, the GI50 (A498 renal) was 1080 nM and the TGI (A498 renal) was 13600 nM. It also gave a GI50 (TK-10 renal) of 1280 nM and a TGI (TK-10 renal) of 9240 nM.
